Measured values as given in PubChem BioAssay (NCI).
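Method: 48-hour compound exposure of cells in 96-well plates, five concentrations, linear interpolation of endpoints. TGI denotes the concentration required for complete inhibition of growth.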

Assays:
Test in all cases: inhibition of tumour cell growth, NCI panel, 48 h
SF-268 CNS = test system: SF-268 CNS
HOP-62 NSCLC = test system: HOP-62 NSCLC
NCI-H522 lung = test system: NCI-H522 lung
OVCAR-3 ovarian = test system: OVCAR-3 ovarian
OVCAR-8 ovarian = test system: OVCAR-8 ovarian
DU-145 prostate = test system: DU-145 prostate
NCI/ADR-RES ovarian = test system: NCI/ADR-RES ovarian
UO-31 renal = test system: UO-31 renal
SW-620 colon = test system: SW-620 colon
T-47D breast = test system: T-47D breast
UACC-62 melanoma = test system: UACC-62 melanoma
HT29 colon = test system: HT29 colon
RPMI-8226 leukemia = test system: RPMI-8226 leukemia
A498 renal = test system: A498 renal
NCI-H226 lung = test system: NCI-H226 lung
IGROV1 ovarian = test system: IGROV1 ovarian
SNB-19 CNS = test system: SNB-19 CNS
MALME-3M melanoma = test system: MALME-3M melanoma
SK-OV-3 ovarian = test system: SK-OV-3 ovarian
HCT-116 colon = test system: HCT-116 colon
BT-549 breast = test system: BT-549 breast
SN12C renal = test system: SN12C renal
COLO 205 colon = test system: COLO 205 colon
HS 578T breast = test system: HS 578T breast
A549 NSCLC = test system: A549 NSCLC
MOLT-4 leukemia = test system: MOLT-4 leukemia
OVCAR-4 ovarian = test system: OVCAR-4 ovarian
NCI-H460 lung = test system: NCI-H460 lung
MDA-MB-231 breast = test system: MDA-MB-231 breast
HCC-2998 colon = test system: HCC-2998 colon
MCF7 breast = test system: MCF7 breast
LOX IMVI melanoma = test system: LOX IMVI melanoma
MDA-MB-435 = test system: MDA-MB-435
ACHN renal = test system: ACHN renal
SF-539 CNS = test system: SF-539 CNS
M14 melanoma = test system: M14 melanoma
U251 CNS = test system: U251 CNS
HOP-92 NSCLC = test system: HOP-92 NSCLC
MDA-N = test system: MDA-N
NCI-H23 lung = test system: NCI-H23 lung
786-0 renal = test system: 786-0 renal
OVCAR-5 ovarian = test system: OVCAR-5 ovarian
RXF 393 renal = test system: RXF 393 renal
KM12 colon = test system: KM12 colon
SK-MEL-5 melanoma = test system: SK-MEL-5 melanoma
SK-MEL-2 melanoma = test system: SK-MEL-2 melanoma
SF-295 CNS = test system: SF-295 CNS
SK-MEL-28 melanoma = test system: SK-MEL-28 melanoma
CAKI-1 renal = test system: CAKI-1 renal
EKVX NSCLC = test system: EKVX NSCLC
CCRF-CEM leukemia = test system: CCRF-CEM leukemia
HL-60(TB) leukemia = test system: HL-60(TB) leukemia
SNB-75 CNS = test system: SNB-75 CNS
PC-3 prostate = test system: PC-3 prostate
K-562 leukemia = test system: K-562 leukemia
HCT-15 colon = test system: HCT-15 colon
UACC-257 melanoma = test system: UACC-257 melanoma
SR leukemia = test system: SR leukemia
TK-10 renal = test system: TK-10 renal

Cn1c(SCc2ccc([N+](=O)[O-])cc2)nnc1C12CC3CC(CC(C3)C1)C2 showed a TGI (SF-268 CNS) greater than 10 µM, a TGI (HOP-62 NSCLC) greater than 10 µM and a TGI (NCI-H522 lung) greater than 10 µM. It also gave a TGI (OVCAR-3 ovarian) greater than 10 µM, a TGI (OVCAR-8 ovarian) greater than 10 µM and a TGI (DU-145 prostate) greater than 10 µM. It also gave a TGI (NCI/ADR-RES ovarian) greater than 10 µM, a TGI (UO-31 renal) greater than 10 µM and a TGI (SW-620 colon) greater than 10 µM. The TGI (T-47D breast) was greater than 10 µM, the TGI (UACC-62 melanoma) was greater than 10 µM and the TGI (HT29 colon) was greater than 10 µM. It also gave a TGI (RPMI-8226 leukemia) greater than 10 µM, a TGI (A498 renal) greater than 10 µM and a TGI (NCI-H226 lung) greater than 10 µM. The TGI (IGROV1 ovarian) was greater than 10 µM, the TGI (SNB-19 CNS) was greater than 10 µM and the TGI (MALME-3M melanoma) was greater than 10 µM. The TGI (SK-OV-3 ovarian) was greater than 10 µM, the TGI (HCT-116 colon) was greater than 10 µM and the TGI (BT-549 breast) was greater than 10 µM. It also gave a TGI (SN12C renal) greater than 10 µM, a TGI (COLO 205 colon) greater than 10 µM and a TGI (HS 578T breast) greater than 10 µM. For the same compound, the TGI (A549 NSCLC) was greater than 10 µM, the TGI (MOLT-4 leukemia) was greater than 10 µM and the TGI (OVCAR-4 ovarian) was greater than 10 µM. For the same compound, the TGI (NCI-H460 lung) was greater than 10 µM, the TGI (MDA-MB-231 breast) was greater than 10 µM and the TGI (HCC-2998 colon) was greater than 10 µM. It also gave a TGI (MCF7 breast) greater than 10 µM, a TGI (LOX IMVI melanoma) greater than 10 µM and a TGI (MDA-MB-435) greater than 10 µM. It also gave a TGI (ACHN renal) greater than 10 µM, a TGI (SF-539 CNS) greater than 10 µM and a TGI (M14 melanoma) greater than 10 µM. The TGI (U251 CNS) was greater than 10 µM, the TGI (HOP-92 NSCLC) was greater than 10 µM and the TGI (MDA-N) was greater than 10 µM. For the same compound, the TGI (NCI-H23 lung) was greater than 10 µM, the TGI (786-0 renal) was greater than 10 µM and the TGI (OVCAR-5 ovarian) was greater than 10 µM. It also gave a TGI (RXF 393 renal) greater than 10 µM, a TGI (KM12 colon) greater than 10 µM and a TGI (SK-MEL-5 melanoma) greater than 10 µM. The TGI (SK-MEL-2 melanoma) was greater than 10 µM, the TGI (SF-295 CNS) was greater than 10 µM and the TGI (SK-MEL-28 melanoma) was greater than 10 µM. For the same compound, the TGI (CAKI-1 renal) was greater than 10 µM, the TGI (EKVX NSCLC) was greater than 10 µM and the TGI (CCRF-CEM leukemia) was greater than 10 µM. The TGI (HL-60(TB) leukemia) was greater than 10 µM, the TGI (SNB-75 CNS) was greater than 10 µM and the TGI (PC-3 prostate) was greater than 10 µM. The TGI (K-562 leukemia) was greater than 10 µM and the TGI (HCT-15 colon) was greater than 10 µM.

OC[C@H](O)[C@@H](OCc1ccccc1)[C@H](NCc1ccccc1)c1cccs1 showed a TGI (SF-268 CNS) greater than 100 µM, a TGI (HOP-62 NSCLC) greater than 100 µM and a TGI (NCI-H522 lung) greater than 100 µM. For the same compound, the TGI (OVCAR-3 ovarian) was greater than 100 µM, the TGI (OVCAR-8 ovarian) was greater than 100 µM and the TGI (DU-145 prostate) was greater than 100 µM. For the same compound, the TGI (NCI/ADR-RES ovarian) was greater than 100 µM, the TGI (UO-31 renal) was 68.8 µM and the TGI (SW-620 colon) was greater than 100 µM. The TGI (T-47D breast) was greater than 100 µM, the TGI (UACC-62 melanoma) was greater than 100 µM and the TGI (HT29 colon) was greater than 100 µM. For the same compound, the TGI (RPMI-8226 leukemia) was greater than 100 µM, the TGI (A498 renal) was greater than 100 µM and the TGI (NCI-H226 lung) was greater than 100 µM. The TGI (IGROV1 ovarian) was greater than 100 µM, the TGI (SNB-19 CNS) was greater than 100 µM and the TGI (MALME-3M melanoma) was greater than 100 µM. It also gave a TGI (SK-OV-3 ovarian) greater than 100 µM, a TGI (HCT-116 colon) greater than 100 µM and a TGI (BT-549 breast) greater than 100 µM. It also gave a TGI (SN12C renal) greater than 100 µM, a TGI (COLO 205 colon) greater than 100 µM and a TGI (A549 NSCLC) greater than 100 µM. It also gave a TGI (MOLT-4 leukemia) greater than 100 µM, a TGI (OVCAR-4 ovarian) greater than 100 µM and a TGI (NCI-H460 lung) greater than 100 µM. It also gave a TGI (MDA-MB-231 breast) greater than 100 µM, a TGI (UACC-257 melanoma) greater than 100 µM and a TGI (MCF7 breast) greater than 100 µM. For the same compound, the TGI (LOX IMVI melanoma) was greater than 100 µM, the TGI (MDA-MB-435) was greater than 100 µM and the TGI (ACHN renal) was greater than 100 µM. It also gave a TGI (SF-539 CNS) greater than 100 µM, a TGI (M14 melanoma) greater than 100 µM and a TGI (U251 CNS) greater than 100 µM. It also gave a TGI (HOP-92 NSCLC) greater than 100 µM, a TGI (MDA-N) greater than 100 µM and a TGI (NCI-H23 lung) greater than 100 µM. For the same compound, the TGI (786-0 renal) was greater than 100 µM, the TGI (OVCAR-5 ovarian) was greater than 100 µM and the TGI (KM12 colon) was greater than 100 µM. The TGI (SK-MEL-5 melanoma) was greater than 100 µM, the TGI (SR leukemia) was greater than 100 µM and the TGI (SK-MEL-2 melanoma) was greater than 100 µM. For the same compound, the TGI (SF-295 CNS) was greater than 100 µM, the TGI (SK-MEL-28 melanoma) was greater than 100 µM and the TGI (CAKI-1 renal) was greater than 100 µM. For the same compound, the TGI (EKVX NSCLC) was greater than 100 µM, the TGI (CCRF-CEM leukemia) was greater than 100 µM and the TGI (HL-60(TB) leukemia) was greater than 100 µM. It also gave a TGI (SNB-75 CNS) greater than 100 µM, a TGI (PC-3 prostate) greater than 100 µM and a TGI (TK-10 renal) greater than 100 µM. It also gave a TGI (K-562 leukemia) greater than 100 µM and a TGI (HCT-15 colon) greater than 100 µM.

In the case of CNC(=O)/C(C#N)=C(\N)N1CCCC1, the TGI (SF-268 CNS) is reported as greater than 100 µM, the TGI (HOP-62 NSCLC) is reported as greater than 100 µM and the TGI (NCI-H522 lung) is reported as greater than 100 µM. For the same compound, the TGI (OVCAR-3 ovarian) was greater than 100 µM, the TGI (OVCAR-8 ovarian) was greater than 100 µM and the TGI (DU-145 prostate) was greater than 100 µM. The TGI (NCI/ADR-RES ovarian) was greater than 100 µM, the TGI (UO-31 renal) was greater than 100 µM and the TGI (SW-620 colon) was greater than 100 µM. For the same compound, the TGI (T-47D breast) was greater than 100 µM, the TGI (UACC-62 melanoma) was greater than 100 µM and the TGI (HT29 colon) was greater than 100 µM. For the same compound, the TGI (RPMI-8226 leukemia) was greater than 100 µM, the TGI (A498 renal) was greater than 100 µM and the TGI (NCI-H226 lung) was greater than 100 µM. It also gave a TGI (IGROV1 ovarian) greater than 100 µM, a TGI (SNB-19 CNS) greater than 100 µM and a TGI (MALME-3M melanoma) greater than 100 µM. For the same compound, the TGI (SK-OV-3 ovarian) was greater than 100 µM, the TGI (HCT-116 colon) was greater than 100 µM and the TGI (SN12C renal) was greater than 100 µM. It also gave a TGI (COLO 205 colon) greater than 100 µM, a TGI (HS 578T breast) greater than 100 µM and a TGI (A549 NSCLC) greater than 100 µM. The TGI (MOLT-4 leukemia) was greater than 100 µM, the TGI (NCI-H460 lung) was greater than 100 µM and the TGI (MDA-MB-231 breast) was greater than 100 µM. The TGI (HCC-2998 colon) was greater than 100 µM, the TGI (MDA-MB-435) was greater than 100 µM and the TGI (ACHN renal) was greater than 100 µM. The TGI (SF-539 CNS) was greater than 100 µM, the TGI (U251 CNS) was greater than 100 µM and the TGI (MDA-N) was greater than 100 µM. The TGI (NCI-H23 lung) was greater than 100 µM, the TGI (786-0 renal) was greater than 100 µM and the TGI (OVCAR-5 ovarian) was greater than 100 µM. It also gave a TGI (RXF 393 renal) greater than 100 µM, a TGI (KM12 colon) greater than 100 µM and a TGI (SK-MEL-5 melanoma) greater than 100 µM. It also gave a TGI (SR leukemia) greater than 100 µM, a TGI (SK-MEL-2 melanoma) greater than 100 µM and a TGI (SK-MEL-28 melanoma) greater than 100 µM. For the same compound, the TGI (CAKI-1 renal) was greater than 100 µM, the TGI (EKVX NSCLC) was greater than 100 µM and the TGI (CCRF-CEM leukemia) was greater than 100 µM. It also gave a TGI (HL-60(TB) leukemia) greater than 100 µM, a TGI (PC-3 prostate) greater than 100 µM and a TGI (TK-10 renal) greater than 100 µM. The TGI (K-562 leukemia) was greater than 100 µM and the TGI (HCT-15 colon) was greater than 100 µM.
